# Values of other authors in patent US4213968A, “Enkephalin derivatives” (priority 1978, dated 1980).
# Columns and labels:
# [1] = system: brain opiate receptor sites
# [2] = system: analgesia in the rat; details: injected directly into the brain of the rat
# [3] = system: opiate activity
substance,measurement,setting,value
H-Tyr-Gly-Gly-Phe-Met-OH [methionine enkephalin],binding to partially purified brain opiate receptor sites,[1],binds stereospecifically
same,analgesic activity,[2],weak analgesic activity of short duration
same,activity in bioassays for opiate activity,[3],very active
